Assay results from patent US20080227134A9, “Glyoxylate assays and their use of inden tifying natural amidated compounds” (priority 2005, published 2008).

Tests used:
Glyoxal oxidase [1] = molecular target: T1, Glyoxal oxidase (Phanerodontia chrysosporium, UniProt Q01772); settings: cited from earlier work
T1 sequence (Q01772 23-559): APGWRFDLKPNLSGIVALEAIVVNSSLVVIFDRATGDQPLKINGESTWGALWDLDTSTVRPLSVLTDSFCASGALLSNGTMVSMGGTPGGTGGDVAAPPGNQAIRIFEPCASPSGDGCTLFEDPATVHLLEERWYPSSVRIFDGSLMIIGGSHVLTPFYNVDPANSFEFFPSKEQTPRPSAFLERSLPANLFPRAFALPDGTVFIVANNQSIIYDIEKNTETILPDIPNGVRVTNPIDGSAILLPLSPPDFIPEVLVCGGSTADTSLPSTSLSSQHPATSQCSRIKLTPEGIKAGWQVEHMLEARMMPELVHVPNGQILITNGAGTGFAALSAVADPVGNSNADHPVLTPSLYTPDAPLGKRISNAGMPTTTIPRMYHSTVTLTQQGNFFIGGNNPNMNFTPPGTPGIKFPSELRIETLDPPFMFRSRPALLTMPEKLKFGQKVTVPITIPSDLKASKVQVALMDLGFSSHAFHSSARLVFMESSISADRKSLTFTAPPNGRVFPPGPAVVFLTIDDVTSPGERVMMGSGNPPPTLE

[2] = molecular target: T2, peptidylglycine α-amidating monooxygenase (Rattus norvegicus, UniProt P14925); experiment: PAM treatment of hippurate: benzamide by HPLC, glyoxylate by malate synthase/malate dehydrogenase/MTS/PMS system; type: biochemical; settings: for Benzamide Produced / Glyoxylate Produced: PAM added to 2.5 mM hippurate
T2 sequence (P14925 36-976): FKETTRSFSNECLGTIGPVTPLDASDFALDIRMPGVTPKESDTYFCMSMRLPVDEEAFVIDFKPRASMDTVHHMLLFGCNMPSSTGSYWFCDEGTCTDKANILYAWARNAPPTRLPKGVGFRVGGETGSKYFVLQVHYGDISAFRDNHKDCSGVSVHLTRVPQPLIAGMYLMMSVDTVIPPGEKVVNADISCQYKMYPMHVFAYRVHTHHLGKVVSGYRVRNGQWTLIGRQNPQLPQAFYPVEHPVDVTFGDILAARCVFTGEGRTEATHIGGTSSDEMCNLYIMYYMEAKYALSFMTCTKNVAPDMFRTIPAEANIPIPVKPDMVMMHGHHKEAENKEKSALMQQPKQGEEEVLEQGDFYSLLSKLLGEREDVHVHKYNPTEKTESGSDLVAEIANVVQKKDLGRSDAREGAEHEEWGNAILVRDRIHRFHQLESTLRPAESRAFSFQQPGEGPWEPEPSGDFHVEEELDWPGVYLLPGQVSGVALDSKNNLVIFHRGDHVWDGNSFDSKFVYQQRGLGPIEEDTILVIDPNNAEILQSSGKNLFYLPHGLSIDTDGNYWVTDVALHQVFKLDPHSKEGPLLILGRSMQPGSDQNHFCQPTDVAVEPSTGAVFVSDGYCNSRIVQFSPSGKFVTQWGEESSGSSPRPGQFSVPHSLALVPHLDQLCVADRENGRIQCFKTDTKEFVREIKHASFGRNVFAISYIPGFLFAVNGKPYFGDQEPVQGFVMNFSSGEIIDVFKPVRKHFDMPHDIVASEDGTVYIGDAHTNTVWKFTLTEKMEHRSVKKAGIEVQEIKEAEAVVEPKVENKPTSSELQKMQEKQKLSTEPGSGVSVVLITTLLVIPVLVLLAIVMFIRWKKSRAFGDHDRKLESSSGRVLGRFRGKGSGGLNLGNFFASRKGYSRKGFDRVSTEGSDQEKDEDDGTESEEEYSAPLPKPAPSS
Protocol: Hippurate (N-benzoylglycine, C6H5-CO—NH—CH2-COO^−) is a PAM substrate that is oxidatively converted to benzamide and glyoxylate. […] At 10 min intervals over a period of 110 minutes, 45 μl aliquots may be removed and added to 10 μl of 6% (v/v) trifluoroacetic acid to terminate the reaction. Percent conversion of hippurate to benzamide may be determined at each time interval by reverse-phase HPLC.
Approximately 20 nanomoles of glyoxylate may be removed from the HPLC vials and added to a 0.9 ml solution that contain necessary components for the glyoxylate assay excluding the enzyme couple and MTS/PMS. Ascorbate may be eliminated from all samples, prior to glyoxylate determination, with 10 min incubation in the presence of 12 units of ascorbate oxidase at 37° C. Following ascorbate removal the addition of 100 μl enzyme couple and PMS/MTS may bring the assay to a final volume of 1 ml which contains 100 mM TEA-HC1 pH 7.8, 10 MM MgCl2, 400 μM acetyl-CoA, 500 μM NAD^+, 6 U/ml malate synthase, 6 U/ml malate dehydrogenase, and 12 units ascorbate oxidase. The glyoxylate concentration may be determined by measuring the absorbance increase at 490 nm after incubation at 37° C. for 1 hr. A control for this experiment was performed at each time point, and contained no hippurate.

Glyoxal oxidase [3] = molecular target: T1, Glyoxal oxidase; experiment: Effect of PAM reductant on glyoxal oxidase activity and glyoxylate assays; type: biochemical; set-up: Dr. James Whittaker, OGI School of Science and Engineering (gift); settings: reductant for PAM catalysis
From the text: Application of the assays of the invention to the quantification of PAM-produced glyoxylate required two alterations of the PAM assay, as well as one change to the common glycolate oxidase assay which has previously been mentioned. Without these specific alterations the assays would be rendered non-stoichiometric and produce anomalous data. First, to address the changes to the PAM assay, a new method for enzyme protection due to hydroxyl radical formation produced during catalysis was necessary as the use of catalase has previously been the method of choice. Catalase catalyzes the disproportionate reaction of H2O2 to H2O and O2, and removal of hydrogen peroxide is detrimental to the assay methods. […] Second, a reducing agent is necessary for the PAM catalysis. Ascorbate is frequently used in the art for this purpose. […] As an alternative to the foregoing, ascorbate may be used in the PAM-catalyzed reaction, but later removed (e.g., by deactivating with ascorbate oxidase) prior to assaying for glyoxylate.

PAM = molecular target: T3, PAM (Rattus norvegicus, UniProt P14925); experiment: PAM dependent conversion of N-dansyl-Tyr-Val-Gly verified by RP-HPLC; type: biochemical; settings: 20 μM substrate, PAM 15 U/L, 1.0 mM catechol, one hour at 37° C.
T3 construct: Unigene Labs, Inc. (Fairfield, N.J.), gift
T3 sequence (P14925 36-715 isoform P14925-2 limits assumed): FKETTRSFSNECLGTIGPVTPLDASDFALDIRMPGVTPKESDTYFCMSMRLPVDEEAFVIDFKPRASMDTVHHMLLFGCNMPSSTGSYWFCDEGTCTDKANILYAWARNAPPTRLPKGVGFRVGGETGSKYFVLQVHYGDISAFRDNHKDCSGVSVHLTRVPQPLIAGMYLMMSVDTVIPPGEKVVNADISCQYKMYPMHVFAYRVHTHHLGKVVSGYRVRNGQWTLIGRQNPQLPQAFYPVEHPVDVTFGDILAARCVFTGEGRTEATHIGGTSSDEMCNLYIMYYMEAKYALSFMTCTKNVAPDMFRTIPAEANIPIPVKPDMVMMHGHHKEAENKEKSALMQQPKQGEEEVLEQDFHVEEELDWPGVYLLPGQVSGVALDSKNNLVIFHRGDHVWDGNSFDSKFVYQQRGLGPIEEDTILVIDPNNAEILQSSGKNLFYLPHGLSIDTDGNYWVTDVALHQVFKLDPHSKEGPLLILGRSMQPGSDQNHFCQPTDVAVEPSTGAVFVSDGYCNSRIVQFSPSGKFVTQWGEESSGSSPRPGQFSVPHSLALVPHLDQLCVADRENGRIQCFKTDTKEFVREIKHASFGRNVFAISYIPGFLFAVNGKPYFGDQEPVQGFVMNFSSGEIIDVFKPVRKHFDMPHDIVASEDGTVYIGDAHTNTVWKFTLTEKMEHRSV
Protocol: Glyoxylate production was initiated by the addition of PAM (15 U/L) to a solution containing 40 mM MES/NaOH pH 6.0, 10 U/ml HRP, 1.0 mM catechol, 0.5 μM CU(SO4), 20 μM dansyl-Tyr-Val-Gly, the reaction proceeded for one hour at 37° C. […] The complete PAM dependent conversion of 20 μM N-dansyl-Tyr-Val-Gly to N-dansyl-Tyr-Val-NH2 and glyoxylate was verified by RP-HPLC to quantify the exact concentrations of [dansyl-Tyr-Val-NH2] and [glyoxylate] (100% conversion, 20 μM N-dansyl-Tyr-Val-NH2 and glyoxylate). Aliquots of the PAM produced glyoxylate pertaining to variable concentrations (0.3, 0.7, 1.6, and 2.3, μM) of were utilized for analysis by the GLOX assay. Aliquots of glyoxylate were added to a solution of 50 mM sodium phosphate pH 6.0, 50 μM Amplex red, at HRP (1 U/ml) and a final concentration of 0.4 mg/ml GLOX. All samples were incubated for 1 hour at 37° C. for one hour.
Glyoxylate production was initiated by the addition of PAM (15 U/L) to a solution containing 40 mM MES/NaOH pH 6.0, 10 U/ml HRP, 1.0 mM catechol, 0.5 μM Cu(SO4), 20 μM dansyl-Tyr-Val-Gly, the reaction proceeded for one hour at 37° C. The PAM dependent conversion of 20 μM N-dansyl-Tyr-Val-Gly to N-dansyl-Tyr-Val-NH2 and glyoxylate was verified to be 100% by a RP-HPLC assay, to ensure a 20 μM PAM produced glyoxylate solution. […]

Compound: CC(=O)C=O [Methylglyoxal]
- Km (Glyoxal oxidase [1]): 640 µM

Compound: O=C(O)CNC(=O)c1ccccc1 [hippurate, N-benzoylglycine]
- [Glyoxylate]/[Benzamide] ([2]; Time 40): 1.2
- Benzamide Produced ([2]; Time 40): 0.58 mM
- Glyoxylate Produced ([2]; Time 40): 0.69 mM
- [Glyoxylate]/[Benzamide] ([2]; Time 50): 0.96
- Benzamide Produced ([2]; Time 50): 0.70 mM
- Glyoxylate Produced ([2]; Time 50): 0.67 mM
- [Glyoxylate]/[Benzamide] ([2]; Time 60): 0.89
- Benzamide Produced ([2]; Time 60): 0.80 mM
- Glyoxylate Produced ([2]; Time 60): 0.71 mM
- [Glyoxylate]/[Benzamide] ([2]; Time 70): 0.83
- Benzamide Produced ([2]; Time 70): 0.90 mM
- Glyoxylate Produced ([2]; Time 70): 0.75 mM
- [Glyoxylate]/[Benzamide] ([2]; Time 80): 0.79
- Benzamide Produced ([2]; Time 80): 0.98 mM
- Glyoxylate Produced ([2]; Time 80): 0.77 mM
- [Glyoxylate]/[Benzamide] ([2]; Time 90): 1.2
- Benzamide Produced ([2]; Time 90): 1.1 mM
- Glyoxylate Produced ([2]; Time 90): 1.3 mM
- [Glyoxylate]/[Benzamide] ([2]; Time 100): 1.1
- Benzamide Produced ([2]; Time 100): 1.2 mM
- Glyoxylate Produced ([2]; Time 100): 1.3 mM
- [Glyoxylate]/[Benzamide] ([2]; Time 110): 1.0
- Benzamide Produced ([2]; Time 110): 1.3 mM
- Glyoxylate Produced ([2]; Time 110): 1.3 mM

Compound: Oc1ccccc1O [catechol]
- inhibition of the enzyme activity of glyoxal oxidase and of the spectrophotometric, fluorescent and luminescent assays (Glyoxal oxidase [3]): not an inhibitor

Compound: O=CC(=O)O [glyoxylic acid]
- Km (Glyoxal oxidase [1]): 2500 µM
- kcat/KM ratio, activity compared to methylglyoxal (Glyoxal oxidase [1]): 12.4%

Compound: N-dansyl-Tyr-Val-Gly
- PAM dependent conversion to N-dansyl-Tyr-Val-NH2 and glyoxylate (PAM): 100%
